Results from US20120208776A1 (priority 2002, published 2012).
Like-named read-outs stand apart in the source and are kept apart here.

Experiments:
[1] = Solubility (observation)
[2] = system: MDA-MB-453 cells; assay: Cell-cycle analysis by DNA flow cytometry; format: cell-based, human; conditions: 48 hrs
Procedure: (§1) Synchrony: To synchronize the cells, 3×10^5 cells were plated onto 10 cm dishes and grown for 2 days in DMEM supplemented with 10% fetal bovine serum.
(§2) After incubation for 1-3 days, the supernatant was collected, and the cells were trypsinized, collected, and washed with phosphate buffered saline (PBS) containing 5% FBS. Cell pellets were re-suspended in 1 ml of PBS plus 5% FBS. Thereafter, 5 ml of 70% ethanol were added drop-wise, while vortexing the tube, and the mixture was stored at 4° C. Cells were centrifuged, washed with PBS plus 5% FBS, and re-suspended in 400 μl of propidium iodide (0.1 mg/ml) (Sigma Chemical Co.). 400 μl (2 mg/ml) of RNase (Sigma Chemical Co.) were added, and the cells were incubated in the dark at room temperature for 30 min.

[3] = system: MCF7 cells; assay: Cell proliferation, cell count (Coulter Counter); format: cell-based, human; conditions: for IC50: MCF7 cells, 96 h
[4] = system: MCF7 cells; assay: Cell-cycle analysis by DNA flow cytometry; format: cell-based, human; conditions: about 40 μg/ml
Procedure: as §1, §2

[5] = system: MDA-MB-453 cells; assay: Cell proliferation, cell count (Coulter Counter); conditions: MDA-MB-453 (FIG. 10)
Procedure: For the cell count assay, breast cancer cells were seeded, in triplicate, at 2×10^4 cells per well, in 24- or 96-well plates.
(§3) For the Coulter counter assay, cells were seeded at 2×10^4 cells per well in 24 well plates (0.875 cm diameter) as described previously. […] Control and treated cells were compared using the student's t-test (p<0.05). For cell cycle analysis the cells were plated (3×10^5) onto 6 cm dishes and allowed to attach for 24 hours. […] After 24 hours the cells were analyzed by DNA flow cytometry, as described previously.

[6] = system: MDA-MB-453 cells; assay: Combination with chemotherapy agents, cell count, combination index (CI); format: cell-based, human
[7] = system: Na^+-K^+-ATPase; assay: Enzymatic assay of adenosine 5′-triphosphatase; format: biochemical; conditions: 20 μM
Procedure: Enzymatic assay of adenosine 5′-triphosphatase. The enzymatic assay of ATPase (adenosine 5′-triphosphatase, EC 3.6.1.3) followed the Sigma Prod. […] [P] was determined by the Taussky-Shorr method.

[8] = system: MDA-MB-453 cells; assay: Combination of agents, MTT assay, combination index
Procedure: Calculating the Combination Index. To determine the Combination Index (CI), 1) the Na^+-K^+-ATPase enzyme or 2) MDA-MB-453 cells were exposed to all combinations of 3, 4 or 5 concentrations of each of the agents tested and a solvent control. […] The results of the enzymatic assay of ATPase or MTT assay were analyzed for possible synergistic effects using the median effect principle. Variable ratios of drugs were employed and mutually exclusive equations were assumed.
Calculating the Combination Index.
The simvastatin was obtained from Sigma of St. Louis, Mo. The concentrations tested in the present example were 0, 0.2, 2, 5, and 20 μg/ml actein and 0, 0.8, 4, 20 and 40 μg/ml simvastatin.

[9] = target: NTPase/helicase of hepatitis C virus (Hepatitis C virus genotype 1a, UniProt P27958); conditions: competitive inhibition of ATP binding; cited from earlier work
Chain of NTPase/helicase of hepatitis C virus (P27958 1203-1364): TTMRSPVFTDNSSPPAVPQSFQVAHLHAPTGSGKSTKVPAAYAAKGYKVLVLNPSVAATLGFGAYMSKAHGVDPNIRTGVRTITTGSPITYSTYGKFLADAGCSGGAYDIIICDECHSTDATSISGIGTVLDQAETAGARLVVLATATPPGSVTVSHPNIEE

[10] = system: MDA-MB-453 cells; assay: MTT assay, 96 hours; format: cell-based, human; conditions: Homo sapiens, MTT, 96 h, read-out: IC50
Procedure: as §3

[11] = value in parentheses, read-out: IC50

Compound: 25-acetyl-7,8-didehydrocimigenol 3-O-β-D-xylopyranoside
- solubility [1]: sufficiently soluble

Compound: O=c1[nH]cc(F)c(=O)[nH]1 [5-FU, 5-fluorouracil, reference compound]
- G1 (%) ([2]; (c) 5-FU 0.02 μg/mL): 28.9%
- G2/M (%) ([2]; (c) 5-FU 0.02 μg/mL): 20.3%
- S (%) ([2]; (c) 5-FU 0.02 μg/mL): 47.6%
- Sub G1 (%) ([2]; (c) 5-FU 0.02 μg/mL): 3. %

Compound: CC(=O)O[C@@H]1C[C@@]23C[C@@]24CC[C@H](O[C@@H]2OC[C@@H](O)[C@H](O)[C@H]2O)C(C)(C)[C@@H]4CC[C@H]3[C@]2(C)C[C@@H]3O[C@@]4(C[C@@H](C)[C@@H]3[C@@]12C)OC[C@@]1(C)O[C@@H]41 [23-epi-26-deoxyactein]
- IC50 [3]: 21 µg/mL
- IC50 [3, 11]: 32 µM
- cell-cycle arrest [4]: induced cell-cycle arrest at G1

Compound: C[C@@H]1C[C@@H]2O[C@@]3(O[C@@H]2C(C)(C)O)[C@H](O)[C@@]2(C)[C@@H]4CC[C@H]5C(C)(C)[C@@H](O)CC[C@@]56C[C@@]46CC[C@]2(C)[C@@H]13 [Cimigenol, cimigenol]
- effect on the growth of human breast cancer cells [5]: less active than cimigenol glycoside

Compound: COc1cccc2c1C(=O)c1c(O)c3c(c(O)c1C2=O)C[C@@](O)(C(=O)CO)C[C@@H]3O[C@H]1C[C@H](N)[C@H](O)[C@H](C)O1 [Doxorubicin, doxorubicin, reference compound]
- G1 (%) ([2]; (c) Doxorubicin 0.1 μg/mL): 30.1%
- G2/M (%) ([2]; (c) Doxorubicin 0.1 μg/mL): 61.7%
- S (%) ([2]; (c) Doxorubicin 0.1 μg/mL): 5.6%
- Sub G1 (%) ([2]; (c) Doxorubicin 0.1 μg/mL): 2.5%

Compound: CC(=O)O[C@@H]1C[C@@]23C[C@@]24CC[C@H](O[C@@H]2OC[C@@H](O)[C@H](O)[C@H]2O)C(C)(C)[C@@H]4CC=C3[C@]2(C)C[C@@H]3O[C@@]4(O)[C@H](OC(C)(C)[C@H]4O)[C@@H](C)[C@@H]3[C@@]12C [cimiracemoside A]
- IC50 [3]: 41 µg/mL
- IC50 [3, 11]: 61 µM
- cell-cycle arrest [4]: induced cell-cycle arrest at G1

Compound: COc1cc(/C=C/C(=O)O)ccc1O [ferulic, ferulic acid]
- effect on the growth of MCF7 cells [3]: active in suppressing the growth

Compound: COc1ccc(/C=C/C(=O)O)cc1O [isoferulic, isoferulic acid]
- effect on the growth of MCF7 cells [3]: active in suppressing the growth

Compound: CC(=O)O[C@H]1C(=O)[C@@]2(C)[C@H]([C@H](OC(=O)c3ccccc3)[C@]3(O)C[C@H](OC(=O)[C@H](O)[C@@H](NC(=O)c4ccccc4)c4ccccc4)C(C)=C1C3(C)C)[C@]1(OC(C)=O)CO[C@@H]1C[C@@H]2O [paclitaxel, reference compound]
- number of viable cells, average ([6]; tax 1): 118624
- number of viable cells, average ([6]; tax 4): 37060.67
- number of viable cells, average ([6]; tax .25 (nM)): 198416.3
- G1 (%) ([2]; (b) Taxol 1 nM): 71.0%
- G2/M (%) ([2]; (b) Taxol 1 nM): 17.0%
- S (%) ([2]; (b) Taxol 1 nM): 10.8%
- Sub G1 (%) ([2]; (b) Taxol 1 nM): 1.0%
- percent inhibition of in vitro Na^+-K^+-ATPase activity [7]: 21.7%
- cell survival ([8]; paclitaxel 1 nM alone): 63.2%
- IC50 [9]: ~16 µM

Compound: CCC(C)(C)C(=O)O[C@H]1C[C@@H](C)C=C2C=C[C@H](C)[C@H](CC[C@@H]3C[C@@H](O)CC(=O)O3)[C@H]21 [simvastatin]
- IC50 [10]: 21.5 µM
- viability at 20 µg/mL ([8]; Homo sapiens, MDA-MB-453, read-out: percent viable cells): 83.1%
- cell survival ([8]; simvastatin 40 ug/ml alone): 58.2%

Compound: cimifugoside
- IC50 [3]: 22 µg/mL
- IC50 [3, 11]: 36 µM
